Assay results: patent US20040259806A1 (priority 2001, published 2004)

Legend:
[1] = test system: blood leukocytes; format: in vivo, mice
[2] = test system: thymic cells; assay: Thymic cell proliferation (3H-thymidine) from treated infected mice; format: in vivo
Experimental: Mice thymuses were collected aseptically, homogenized, suspended in RPMI-1640 medium and filtered through two layers of sterile gauze. Cell suspensions were washed twice in RPMI-1640 with 2 mM L-glutamine and […] gentamycin, then counted using a Goriaev hemocytometer.
Spleen cells and thymic cells were isolated as described above. In vitro, thymic cells were diluted to 10^7/ml in RPMI-1640 with 2 mM L-glutamine, 80 ìg/ml gentamycin and 4% heat-inactivated fetal calf serum (Sigma, St. Louis, Mo.). Spleen cells were diluted to 3×10^6/ml in RPMI-1640 with 2 mM L-glutamine, 80 ìg/ml gentamycin and 20% inactivated fetal calf serum. 0.5 ìg/ml Concanavalin A (Con A, Sigma, St. Louis, Mo.) was used to stimulate thymic cell proliferation. For spleen cell proliferation, 0.5 ìg/ml Con A, 10 ìg/ml lipopolysaccharide (Sigma, St. Louis, Mo.), and 50 ìg/ml tuberculin purified protein derivative (PPD) were utilized. The assay was carried out in 96-well plates and cell cultures were incubated for 72 hours, or 96 hours if tuberculin was used, at 37° C. in humidified 5% CO2, then pulsed with 5 ìl Ci/ml ^3H-thymidine overnight (approximately 16 h) and harvested on filters using a semi-automated harvester (Titertek™, Flow Laboratories, Norway). Filters were dried and proliferation calculated by ^3H-thymidine incorporation by counting samples in a liquid scintillation counter (LKB 1217 Racketa, Wallace, Sweden). Data was expressed in impulses per minute.

[3] = test system: IL-4 and IFN-γ; assay: INF-γ and IL-4 concentrations in blood serum; format: in vivo, mice
[4] = test system: IL-4 and IFN-γ; assay: IL-4 and INF-γ in spleen cell supernatants (Quantikine ELISA); format: in vivo, mice
Experimental: In RPMI-1640, spleen cells were diluted to a concentration of 10^7/ml with 10% fetal calf serum, 2 mM L-glutamine and 80 ìg/ml gentamycin. A 100 ìl cell suspension was added to each well of a 96-well culture plate and cytokine production was induced by Con A at a final concentration of 2.5 ìg/ml. A control well included RPMI-1640. For 24 hours, cells were incubated at 37° C. and humidified in 5% CO2. Following incubation, […] of supernatant was removed from each well and stored at −70° C.
IL-4 and INF-γ assays in Con A-stimulated spleen cell supernatants were also performed using Quantikine™ ELIZA kits R & D Systems, Minneapolis, Minn.) in accordance with kit instructions. Plates were coated with monoclonal antibodies to either IL-4 or IFN-γ and blocked. Standards and samples were subsequently added. The cells were incubated for 2 h and washed, following with the addition of a colorimetric substrate. After 30 minutes, the reaction was terminated and plates were read at 450 nm using a plate reader (Multiscan™ 3550, BioRad, Japan).

[5] = test system: tuberculosis; assay: SCV-07 therapy with continued traditional antituberculosis therapy in a patient (Example 2); format: in vivo, human
Description: A patient was admitted to the hospital with infiltrative tuberculosis, destructive phase in the upper lobe and 6th segment of the right lung and 4-5th segments of the left lung. Prior to SCV-07 therapy, symptoms of bacterial intoxication, dyspnea and rales above the damaged lobes were present. […] Large foci of lung destruction surrounded by perifocal inflammation were found in the lingual lobe of the left lung. […] During immunological response assays, a decrease of CD4+ and CD8+ subsets and low lymphocyte blasttransformation responses with PHA and PPD were detected.
After two months of traditional therapy a small improvement in the patient's condition was seen; however, the reoentgenological picture was without significant change and immune responses remained inhibited.
SCV-07 was injected intramuscularly at 0.1 mg, once per day, for 5 days with continued traditional antituberculosis therapy (isoniazid at 600 mg/day intravenously, pyrazinamid at 1500 mg/day per so, rifampicin at 450 mg/day per os, kanamycin at 1000 mg/day intramuscularly). The clinical improvement was significant. Sputum culture tests became negative, cavities closed and infiltrative foci resolved. […] A normal range is approximately 26-40%. […] Finally, the blasttransformation response with PHA increased from 29% to 40%. A normal level is approximately 50%.

[6] = test system: tuberculosis; assay: SCV-07 therapy of a patient with infiltrative tuberculosis (Example 1); format: in vivo, human; conditions: after SCV-07 0.1 mg daily for 5 days
Experimental: A patient, was admitted to the hospital with infiltrative tuberculosis with destruction and dissemination in the upper lobe of the left lung. […] Lymphopenia (18%) and increased ESR (25 mm/h) were present in the blood count. […] Aggressive traditional antituberculosis therapy was carried out including isoniazid at 600 mg/day intravenously, pyrazinamid at 1500 mg/day per os, rifampicin at 450 mg/day per os.
The traditional therapy was unsuccessful, and SCV-07 treatment was undertaken. Following a course of SCV-07 therapy at 0.1 mg daily for 5 days, bacterial intoxication resolved, destructive cavities closed and the sputum culture test was negative. CD3+ lymphocytes increased and tolerance to other drugs improved.

[7] = 17 days after SCV-07 therapy, Groups 8 and 9 (0.01 ìg/kg ip and 1 ìg/kg po)
[8] = after 10 days, Groups 4, 5, 6 and 7
[9] = SCV-07 im 0.1 mg once per day for 5 days with continued traditional therapy

With `N[C@H](CCC(=O)N[C@@H](Cc1c[nH]c2ccccc12)C(=O)O)C(=O)O` [SCV-07, γ-D-glutamyl-L-tryptophan] the “Significant changes in blood lymphocytes and neutrophilic granulocytes” value ([1]; 4 days after therapy) was “not observed”, the monocyte levels ([1]; 10 days after therapy, Groups 6, 7, 8 and 9 compared with Group 3, the isoniazid control) was “decrease” and the lymphocyte numbers [1, 7] was “increase”. The percent of neutrophils [1, 7] was “significant decrease”, the “basal thymic cell proliferation” value ([2]; SCV-07 treated (Groups 4 to 9) versus control (Groups 1 to 3)) was “No significant differences” and the “Con A stimulated thymic cell proliferation” value ([2]; after 4 days, Group 7 (0.1 ìg/kg ip) in comparison to Group 3 (isoniazid control)) was “significantly higher”. The “Con A stimulated thymic cell proliferation response” value ([2]; day 17, Groups 7 and 8 (0.1 and 0.01 ìg/kg ip)) was “essentially the same response as uninfected mice”, the “Con A stimulated thymic cell proliferation” value ([2]; day 24, Groups 6, 7 and 8 (1 ìg/kg 10 injections ip, 0.1 and 0.01 ìg/kg ip)) was “higher numbers than the isoniazid control” and the “IFN-γ levels in blood serum” value [3, 8] was “increased”. The “IL-4 levels in blood serum” value [3, 8] was “decreased”, the “concentration of IFN-γ in blood serum” value ([3]; after 17 days, Groups 4, 5, 6, 7 and 8 (significantly in group 7 and 8)) was “increased” and the “IL-4 in blood serum” value ([3]; after 17 days, Groups 5, 6 and 7) was “significantly decreased”. The “basal IFN-γ production” value ([4]; 4 days after therapy, versus isoniazid control mice (Group 3)) was “failed to differ”, the “Con A stimulated INF-γ production” value ([4]; 10 days after therapy, Groups 4, 5, 6 and 8) was “stimulation” and the “Con A stimulated IL-4 production” value ([4]; 10 days after therapy, Groups 5, 6 and 7) was “significantly decreased”. The “basal IFN-γ production” value ([4]; 17 days after therapy, all mice) was “increase”, the “basal INF-γ production” value ([4]; end of the experiment, only Group 6 (1 ìg/kg ip, 10 injections)) was “maintenance of this increase” and the “basal IL-4 production” value ([4]; mouse, in vivo) was “No significant changes”. For the same molecule, the “basal IFN-γ production” value ([4]; ten days after therapy, Groups 5, 6 and 7) was “significant elevation”, the Immunological responses [5, 9] was “close to normal” and the Sputum culture tests [5, 9] was “negative”. For the same molecule, the cavities [5, 9] was “closed”, the infiltrative foci [5, 9] was “resolved” and the clinical improvement ([5]; SCV-07 intramuscularly 0.1 mg once per day for 5 days with continued traditional therapy) was “significant”. For the same molecule, the “CD3+ lymphocytes” value ([5]; post SCV-07, increased from 1.011×10^9/l) was 1.441e+09 L⁻¹, the “CD8+ numbers” value ([5]; post SCV-07, increased from 12%, normal range approximately 26-40%) was 21% and the “blasttransformation response with PHA” value ([5]; post SCV-07, increased from 29%, normal level approximately 50%) was 40%. For the same molecule, the Lymphocyte functional abilities ([5]; post SCV-07 treatment) was “markedly elevated”, the “CD3+ lymphocytes” value [6] was “increased” and the bacterial intoxication [6] was “resolved”. The destructive cavities [6] was “closed”, the “Immune complexes in circulation” value ([6]; from 84 U, normal level 22-66 U) was 69 U and the sputum culture test ([6]; traditional therapy was unsuccessful) was “negative”.
